Where two headings read alike, the source gives them in different places.
Assays:
Test in all cases: HotSpot kinase profiling
Type in all cases: biochemical
CK2a = target: T1, CK2a (Homo sapiens, UniProt P68400)
T1 construct: purchased Reaction Biology Corp
In short: (§1)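 Radiometric kinase assay with P81 filter capture; each kinase was added to fresh substrate plus cofactors in reaction buffer and incubated 2 h at room temperature. Unreacted phosphate was washed off with 0.1% phosphoric acid before detection; percent inhibition is relative to DMSO control, averaged over replicates.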

CLK2 = target: T2, CLK2 (Homo sapiens, UniProt P49760)
T2 construct: purchased Reaction Biology Corp
T2 sequence (P49760 whole entry): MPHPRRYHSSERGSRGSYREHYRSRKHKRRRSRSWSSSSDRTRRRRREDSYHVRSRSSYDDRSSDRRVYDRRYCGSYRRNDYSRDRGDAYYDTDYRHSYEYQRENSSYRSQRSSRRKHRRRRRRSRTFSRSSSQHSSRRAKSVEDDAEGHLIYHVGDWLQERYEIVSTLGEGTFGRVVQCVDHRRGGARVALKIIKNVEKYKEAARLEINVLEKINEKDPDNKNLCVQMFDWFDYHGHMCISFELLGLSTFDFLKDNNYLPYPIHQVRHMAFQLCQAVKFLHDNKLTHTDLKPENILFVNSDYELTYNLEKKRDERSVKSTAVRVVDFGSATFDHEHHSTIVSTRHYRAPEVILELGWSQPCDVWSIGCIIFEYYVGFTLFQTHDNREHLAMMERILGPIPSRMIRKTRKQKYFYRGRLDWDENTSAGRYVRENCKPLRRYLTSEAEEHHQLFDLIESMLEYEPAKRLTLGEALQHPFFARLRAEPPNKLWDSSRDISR
In short: as §1

PHKg2 = target: T3, PHKg2 (Homo sapiens, UniProt P15735)
T3 construct: purchased Reaction Biology Corp
T3 sequence (P15735 1-406): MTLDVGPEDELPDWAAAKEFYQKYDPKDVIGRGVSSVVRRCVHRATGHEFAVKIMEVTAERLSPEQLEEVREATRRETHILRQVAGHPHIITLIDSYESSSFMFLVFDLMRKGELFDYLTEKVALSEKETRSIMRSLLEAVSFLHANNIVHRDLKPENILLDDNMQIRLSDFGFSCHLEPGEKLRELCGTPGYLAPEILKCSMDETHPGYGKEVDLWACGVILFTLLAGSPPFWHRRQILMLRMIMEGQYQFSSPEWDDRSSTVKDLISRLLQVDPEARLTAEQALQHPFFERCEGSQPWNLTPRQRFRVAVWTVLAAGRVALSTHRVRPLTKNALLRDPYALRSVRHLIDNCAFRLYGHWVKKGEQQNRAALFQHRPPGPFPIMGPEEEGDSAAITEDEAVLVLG
In short: as §1

PDGFRb = target: T4, PDGFRb (Homo sapiens, UniProt P09619)
T4 construct: purchased Reaction Biology Corp
T4 sequence (P09619 33-1106): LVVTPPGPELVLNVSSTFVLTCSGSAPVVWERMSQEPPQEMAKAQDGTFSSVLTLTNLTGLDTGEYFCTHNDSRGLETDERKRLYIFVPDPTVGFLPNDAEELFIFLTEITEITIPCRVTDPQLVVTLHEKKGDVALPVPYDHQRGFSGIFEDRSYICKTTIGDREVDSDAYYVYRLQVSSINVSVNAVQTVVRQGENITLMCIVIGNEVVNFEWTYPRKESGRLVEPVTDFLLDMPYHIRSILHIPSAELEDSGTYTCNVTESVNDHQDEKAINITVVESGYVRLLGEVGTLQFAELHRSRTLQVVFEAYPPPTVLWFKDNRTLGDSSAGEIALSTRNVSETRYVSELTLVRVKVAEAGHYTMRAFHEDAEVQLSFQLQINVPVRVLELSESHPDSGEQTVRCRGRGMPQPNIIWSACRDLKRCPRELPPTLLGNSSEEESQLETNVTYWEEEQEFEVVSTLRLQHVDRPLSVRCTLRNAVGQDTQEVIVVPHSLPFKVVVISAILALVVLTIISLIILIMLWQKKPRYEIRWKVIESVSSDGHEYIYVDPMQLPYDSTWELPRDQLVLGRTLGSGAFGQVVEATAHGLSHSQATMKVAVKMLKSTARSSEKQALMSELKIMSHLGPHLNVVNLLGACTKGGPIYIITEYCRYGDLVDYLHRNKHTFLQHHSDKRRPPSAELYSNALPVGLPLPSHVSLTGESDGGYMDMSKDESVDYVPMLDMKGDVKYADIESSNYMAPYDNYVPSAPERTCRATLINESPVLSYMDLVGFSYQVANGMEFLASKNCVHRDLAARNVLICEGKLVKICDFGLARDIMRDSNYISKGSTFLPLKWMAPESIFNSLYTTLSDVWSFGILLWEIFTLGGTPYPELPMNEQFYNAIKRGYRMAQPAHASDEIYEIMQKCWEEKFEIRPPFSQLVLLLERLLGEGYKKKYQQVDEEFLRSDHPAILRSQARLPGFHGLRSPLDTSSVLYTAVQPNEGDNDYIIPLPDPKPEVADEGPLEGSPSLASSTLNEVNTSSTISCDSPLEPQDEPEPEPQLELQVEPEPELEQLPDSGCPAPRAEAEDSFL
In short: as §1

GRK3 = target: T5, GRK3 (Homo sapiens, UniProt P35626)
T5 construct: purchased Reaction Biology Corp
T5 sequence (P35626 1-688): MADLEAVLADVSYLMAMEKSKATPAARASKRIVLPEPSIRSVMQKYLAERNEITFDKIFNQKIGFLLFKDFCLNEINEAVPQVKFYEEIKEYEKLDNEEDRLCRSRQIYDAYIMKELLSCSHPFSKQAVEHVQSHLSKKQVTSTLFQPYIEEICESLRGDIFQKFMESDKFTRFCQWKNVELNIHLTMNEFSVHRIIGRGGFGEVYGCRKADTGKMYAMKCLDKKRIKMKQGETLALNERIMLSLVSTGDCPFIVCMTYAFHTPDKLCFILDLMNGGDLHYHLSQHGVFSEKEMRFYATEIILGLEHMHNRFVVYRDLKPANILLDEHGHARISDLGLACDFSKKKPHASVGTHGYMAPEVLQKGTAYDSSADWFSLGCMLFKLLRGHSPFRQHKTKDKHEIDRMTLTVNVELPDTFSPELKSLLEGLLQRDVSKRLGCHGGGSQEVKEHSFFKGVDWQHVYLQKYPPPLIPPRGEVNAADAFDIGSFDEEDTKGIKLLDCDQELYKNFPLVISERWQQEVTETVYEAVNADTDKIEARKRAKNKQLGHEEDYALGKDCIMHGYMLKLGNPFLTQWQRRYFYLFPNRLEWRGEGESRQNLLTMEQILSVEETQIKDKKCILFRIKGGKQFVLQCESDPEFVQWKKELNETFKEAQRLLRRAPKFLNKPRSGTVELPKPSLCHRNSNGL
In short: as §1

HCK = target: T6, HCK (Homo sapiens, UniProt P08631)
T6 construct: purchased Reaction Biology Corp
T6 sequence (P08631 whole entry): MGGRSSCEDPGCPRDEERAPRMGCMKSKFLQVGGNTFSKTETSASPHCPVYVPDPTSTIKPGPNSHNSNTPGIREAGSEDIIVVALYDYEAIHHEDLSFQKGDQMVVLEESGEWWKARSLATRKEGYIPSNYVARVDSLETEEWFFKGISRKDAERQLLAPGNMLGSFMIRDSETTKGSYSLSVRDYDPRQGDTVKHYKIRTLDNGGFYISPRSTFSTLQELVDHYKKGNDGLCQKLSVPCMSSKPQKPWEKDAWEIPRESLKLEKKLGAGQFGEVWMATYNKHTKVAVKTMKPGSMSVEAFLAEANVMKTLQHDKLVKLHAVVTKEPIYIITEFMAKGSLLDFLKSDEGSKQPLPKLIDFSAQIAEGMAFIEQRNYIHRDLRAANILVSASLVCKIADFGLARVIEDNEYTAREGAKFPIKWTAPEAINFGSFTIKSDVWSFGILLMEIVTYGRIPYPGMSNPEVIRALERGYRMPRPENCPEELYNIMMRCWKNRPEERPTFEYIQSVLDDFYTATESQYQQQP
In short: as §1

[1] = read-out: % Enzyme Activity (relative to DMSO controls) Run 1
[2] = read-out: % Enzyme Activity (relative to DMSO controls) Run 2

T1 sequence (P68400 whole entry): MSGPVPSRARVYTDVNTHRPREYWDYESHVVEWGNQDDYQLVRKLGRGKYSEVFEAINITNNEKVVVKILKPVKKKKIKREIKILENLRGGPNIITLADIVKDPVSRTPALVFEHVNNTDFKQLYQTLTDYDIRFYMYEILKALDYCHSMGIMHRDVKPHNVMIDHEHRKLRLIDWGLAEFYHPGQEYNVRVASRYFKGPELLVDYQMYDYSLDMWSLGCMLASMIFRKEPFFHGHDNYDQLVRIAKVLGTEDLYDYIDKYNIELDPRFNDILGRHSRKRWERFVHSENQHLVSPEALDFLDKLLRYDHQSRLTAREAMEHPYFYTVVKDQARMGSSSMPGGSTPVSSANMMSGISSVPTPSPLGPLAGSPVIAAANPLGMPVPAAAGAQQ

**Q.** What does the source list for `C=CC(=O)Nc1cccc(Nc2nc(Nc3ccc(OCCOC)c(F)c3)ncc2F)c1` [Compound 2]?
**A.** inhibition at 3 µM (CK2a): -20.1%; remaining activity at 3 µM (CK2a; [1]): 117%; remaining activity at 3 µM (CK2a; [2]): 123%; inhibition at 3 µM (CLK2): 49.6%; remaining activity at 3 µM (CLK2; [1]): 50.2%; remaining activity at 3 µM (CLK2; [2]): 50.6%; inhibition at 3 µM (PHKg2): -14.7%; remaining activity at 3 µM (PHKg2; [1]): 118%; remaining activity at 3 µM (PHKg2; [2]): 112%; inhibition at 3 µM (PDGFRb): 52.4%; remaining activity at 3 µM (PDGFRb; [1]): 47.7%; remaining activity at 3 µM (PDGFRb; [2]): 47.4%; inhibition at 3 µM (GRK3): -0.2%; remaining activity at 3 µM (GRK3; [1]): 99.5%; remaining activity at 3 µM (GRK3; [2]): 101%; inhibition at 3 µM (HCK): 29.5%; remaining activity at 3 µM (HCK; [1]): 72%; remaining activity at 3 µM (HCK; [2]): 69%
